Values quoted from earlier work in paper PMC4004541, “PEG-Like Nanoprobes: Multimodal, Pharmacokinetically and Optically Tunable Nanomaterials” (PLoS ONE, 2014).

Design: method as in manufacturer's package insert
Settings: humans; ref manufacturer's package insert; cited from earlier work

CC1(C)C(/C=C/C=C/C=C/C=C2\N(CCCCS(=O)(=O)O)c3ccc4ccccc4c3C2(C)C)=[N+](CCCCS(=O)(=O)[O-])c2ccc3ccccc3c21 [ICG, indocyanine green]
Blood half-life: 2.5 to 3 min
